Results reported in patent US10155726B2, “Substituted pyridines and uses thereof” (PELOTON THERAPEUTICS, INC., priority 2015, dated 2018).
“Also recorded” adds a separate entry of the source.

Key:
[1] = biological target: T1, HIF-2α HIS TAG-PASB Domain (Homo sapiens, UniProt Q99814); assay: HIF-2α Scintillation Proximity Assay (SPA); type: binding; conditions: displacement of tritiated probe from HIF-2α PAS-B domain
T1 construct: 100 nM HIF-2α HIS TAG-PASB Domain
Experimental: The total assay volume was about 100 μL in the following configuration: 2 μL compound in 100% DMSO, 88 μL buffer with protein and probe and 10 μL of SPA beads. […] The percent inhibition was determined and IC50 values were calculated using the Dotmatics system based on the following equation: % inhibition=[(high control−sample)/(high control−low control)]×100.

786-O cells = assay: VEGF ELISA Assay; type: cell-based; conditions: Homo sapiens, 786-0; VEGF concentration in culture medium of 786-O cells
Experimental: About 7500 786-O cells in 180 μL of growth medium were seeded into each well of a 96-well, white, clear bottom plate (07-200-566, Fisher Scientific) on day one in the layout presented in FIG. 3. […] Each concentration was plated in duplicate. About 20 hours later, medium was removed by suction and each well was supplied with 180 μL of growth medium. About 20 μl freshly-made 10× compound stocks were added to each well. […] The EC50 was calculated by GraphPad Prism using the dose-response-inhibition (four parameter) equation. The cell-seeded plate was then subjected to CellTiter-Glo luminescence cell viability assay (Promega) by adding 50 μL of Celltiter Glo reagent into each well and shaking the plate for 8 minutes at 550 rpm (Thermomixer R, Eppendorf) then the luminescence signal immediately read in a plate reader (3 second delay, 0.5 second/well integration time, Synergy 2 multi Detection Microplate reader).

[2] = system: HIF-2α target genes VEGF, PAI-1 and CCND1; assay: PK/PD study: expression of HIF-2α regulated genes in 786-O tumor xenografts by qRT-PCR; type: in vivo, SCID/Biege mice; conditions: 10 mg/kg oral gavage, six doses at 12 hour interval, 12 hours post last dose
Experimental: (§1) When the xenografts reached about 750 mm^3 in size, the tumor bearing mice were randomly grouped into four groups (n=3). […] All animals were sacrificed at 12 hours post last dose. Tumors and plasma were collected from each animal. Total RNA was extracted from the tumors, and the expression levels of putative HIF-2α regulated genes were determined by qRT-PCR. […] The level of human VEGFA was assessed using an ELISA assay.

786-O-Hif-Luc cells = assay: Luciferase Assay; type: cell-based; conditions: about 24 hours
Experimental: 786-O-Hif-Luc single clone cells were obtained by infecting 786-O cells (ATCC® CRL-1932™) with commercial lentivirus that delivers a luciferase gene driven by multiple HIF responsive elements (Cignal Lenti HIF Reporter (luc): CLS-007L, Qiagen) at Multiplicity of Infection (MOI) of 25 for 24 hours. […] A pool of infected cells were then selected against 2 μg/mL of puromycin (P8833, Sigma) for 10 days followed by limited dilution to select single clones. […] For the luciferase assay, about 7500 786-O-Hif-Luc cells in 90 μL growth medium were seeded into each well of a 96-well white opaque plate (08-771-26, Fisher scientific) a day before treatment with the layout presented in FIG. 4. […] Each concentration was tested in triplicate. After about 24 hours, luciferase activity was determined using ONE-Glo Luciferase Assay Reagent (E6110, Promega) following the manufacturer's recommended procedure. EC50 were calculated using Dotmatics software.

human VEGFA = assay: PK/PD study: human VEGFA in plasma of 786-O xenograft bearing mice by ELISA; type: in vivo, SCID/Biege mice; conditions: 10 mg/kg oral gavage, six doses at 12 hour interval, 12 hours post last dose
Experimental: as §1

T1 sequence (Q99814 239-348): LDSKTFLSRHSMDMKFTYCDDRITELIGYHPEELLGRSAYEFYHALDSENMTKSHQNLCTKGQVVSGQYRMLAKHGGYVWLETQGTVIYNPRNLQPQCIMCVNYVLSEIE

Row | IC50 [1] [nM] | EC50 (786-O cells) [nM] | EC50 (786-O-Hif-Luc cells) [nM] | SMILES | mRNA levels of HIF-2α target genes (VEGF, PAI-1, CCND1) in 786-O xenografts [2] | level of human VEGFA in plasma of 786-O xenograft bearing mice (human VEGFA)
1 | > 1000 | – | – | O[C@H]1c2c(C(F)F)ncc(OC3CC(F)(F)C3)c2C[C@@H]1F [Compound 31] | – | –
2 | < 50 | < 50 | < 50 | N#Cc1cc(F)cc(Oc2cnc(C(F)(F)F)c3c2[C@@H](F)[C@@H](F)[C@H]3O)c1 [Compound 22, 3-(((5R,6S,7S)-5,6-difluoro-7-hydroxy-1-(trifluoromethyl)-6,7-dihydro-5H-cyclopenta[c]pyridin-4-yl)oxy)-5-fluorobenzonitrile] | decreased; also recorded: significant reduction | decreased; also recorded: significant reduction
3 | 50 to 249 | – | – | O[C@H]1c2c(C(F)(F)F)ncc(OCCCF)c2C[C@@H]1F [Compound 24] | – | –
4 | > 1000 | – | – | N#Cc1cc(F)cc(Oc2ncc(Br)c3c2C(F)C(F)(F)C3F)c1 (stereo not shown) [Compound 16] | – | –
5 | 50 to 249 | – | 50 to 249 | O[C@H]1c2c(C(F)(F)F)ncc(OCC(F)F)c2C[C@@H]1F [Compound 27] | – | –
6 | > 1000 | – | – | N#Cc1cc(F)cc(Oc2ncc(C(F)(F)F)c3c2C[C@@H](F)[C@H]3O)c1 [Compound 33, 3-fluoro-5-(((5S,6R)-6-fluoro-5-hydroxy-4-(trifluoromethyl)-6,7-dihydro-5H-cyclopenta[c]pyridin-1-yl)oxy)benzonitrile] | – | –
7 | < 50 | – | 50 to 249 | O[C@H]1c2c(C(F)(F)F)ncc(OCCCF)c2C[C@H]1F [Compound 23] | – | –
8 | > 1000 | – | – | O[C@H]1c2c(C(F)(F)F)ncc(-c3ccccc3)c2C[C@H]1F [Compound 35] | – | –
9 | > 1000 | – | – | CS(=O)(=O)c1ncc(OC2CC(F)(F)C2)c2c1[C@H](O)[C@@H](F)C2 [Compound 11] | – | –
10 | > 1000 | – | – | O[C@H]1c2c(C(F)F)ncc(OC3CC(F)(F)C3)c2C[C@H]1F [Compound 30] | – | –
11 | < 50 | 250 to 1000 | 50 to 249 | O[C@H]1c2c(C(F)(F)F)ncc(OCC(F)F)c2C[C@H]1F [Compound 9] | – | –
12 | 50 to 249 | – | > 1000 | N#Cc1cc(F)cc(Oc2ncc(Br)c3c2[C@@H](F)C(F)(F)[C@H]3O)c1 [Compound 17] | – | –
13 | > 1000 | – | – | O/N=C1/c2c(C(F)(F)F)ncc(OCC(F)F)c2CC1F (stereo not shown) [Compound 38] | – | –
14 | 50 to 249 | – | 250 to 1000 | CS(=O)(=O)c1ncc(Oc2cc(F)cc(C#N)c2)c2c1[C@H](O)[C@H](F)C2 [Compound 4, 3-fluoro-5-(((6R,7S)-6-fluoro-7-hydroxy-1-(methylsulfonyl)-6,7-dihydro-5H-cyclopenta[c]pyridin-4-yl)oxy)benzonitrile] | – | –
15 | > 1000 | – | – | CS(=O)(=O)c1cnc(Oc2cc(F)cc(C#N)c2)c2c1[C@H](O)[C@H](F)C2 [Compound 19] | – | –
16 | < 50 | – | > 1000 | CS(=O)(=O)c1cnc(Oc2cc(F)cc(C#N)c2)c2c1[C@H](O)C(F)(F)[C@@H]2F [Compound 20] | – | –
17 | 250 to 1000 | – | > 1000 | CS(=O)(=O)c1ncc(OC2CC(F)(F)C2)c2c1[C@H](O)[C@H](F)C2 [Compound 12] | – | –
18 | > 1000 | – | – | N#Cc1cc(F)cc(Oc2ncc(C(F)(F)F)c3c2CCC3O)c1 (stereo not shown) [Compound 32] | – | –

Row | IC50 [1] [nM] | EC50 (786-O cells) [nM] | EC50 (786-O-Hif-Luc cells) [nM] | SMILES | mRNA levels of HIF-2α target genes (VEGF, PAI-1, CCND1) in 786-O xenografts [2] | level of human VEGFA in plasma of 786-O xenograft bearing mice (human VEGFA)
19 | > 1000 | – | > 1000 | O=S(=O)(c1cnc(Oc2cc(F)cc(F)c2)c2c1CCC2)C(F)F [Compound 6, 4-(difluoromethylsulfonyl)-1-(3,5-difluorophenoxy)-6,7-dihydro-5H-cyclopenta[c]pyridine] | – | –
20 | > 1000 | – | – | CS(=O)(=O)c1cnc(Oc2cc(F)cc(C#N)c2)c2c1[C@H](O)[C@H](F)[C@@H]2F [Compound 18] | – | –
21 | 250 to 1000 | – | > 1000 | CS(=O)(=O)c1cnc(Oc2cc(F)cc(C#N)c2)c2c1[C@H](O)C(F)(F)[C@H]2F [Compound 21] | – | –
22 | 250 to 1000 | – | 250 to 1000 | N#Cc1cc(F)cc(-c2cnc(C(F)(F)F)c3c2C[C@@H](F)[C@H]3O)c1 (racemic) [Compound 7, 3-fluoro-5-((6R,7S)-6-fluoro-7-hydroxy-1-(trifluoromethyl)-6,7-dihydro-5H-cyclopenta[c]pyridin-4-yl)benzonitrile] | – | –
23 | > 1000 | – | – | CC(C)Oc1cnc(C(F)(F)F)c2c1C[C@H](F)[C@H]2O [Compound 26] | – | –
24 | > 1000 | – | – | OC1CCc2c(OCC(F)F)cnc(C3(C(F)(F)F)CC3)c21 (stereo not shown) [Compound 39] | – | –
25 | > 1000 | – | > 1000 | O[C@@H]1CCc2c(OCC(F)F)cnc(C(F)(F)F)c21 [Compound 10] | – | –
26 | 250 to 1000 | – | – | O[C@H]1c2c(C(F)(F)F)ncc(-c3cc(F)cc(F)c3)c2C[C@H]1F [Compound 36] | – | –
27 | 250 to 1000 | – | – | CC(C)Oc1cnc(C(F)(F)F)c2c1C[C@@H](F)[C@H]2O [Compound 25] | – | –
28 | > 1000 | – | – | CS(=O)(=O)c1cnc(Oc2cc(F)cc(C#N)c2)c2c1C(O)CC2 (stereo not shown) [Compound 28] | – | –
29 | 50 to 249 | – | 50 to 249 | O[C@H]1c2c(C(F)(F)F)ncc(Oc3cncc(F)c3)c2C[C@H]1F [Compound 13] | – | –
30 | < 50 | 50 to 249 | 50 to 249 | N#Cc1cncc(Oc2cnc(C(F)(F)F)c3c2[C@@H](F)[C@@H](F)[C@H]3O)c1 [Compound 34, 5-(((5R,6S,7S)-5,6-difluoro-7-hydroxy-1-(trifluoromethyl)-6,7-dihydro-5H-cyclopenta[c]pyridin-4-yl)oxy)nicotinonitrile] | decreased; also recorded: significant reduction | decreased; also recorded: significant reduction
31 | < 50 | 50 to 249 | < 50 | N#Cc1cc(F)cc(Oc2cnc(C(F)(F)F)c3c2C[C@@H](F)[C@H]3O)c1 [Compound 3, 3-fluoro-5-(((6R,7S)-6-fluoro-7-hydroxy-1-(trifluoromethyl)-6,7-dihydro-5H-cyclopenta[c]pyridin-4-yl)oxy)benzonitrile] | – | –
32 | < 50 | < 50 | < 50 | O[C@H]1c2c(C(F)(F)F)ncc(O[C@H]3C[C@H](F)C3)c2C[C@H]1F [Compound 14] | – | –
33 | < 50 | – | < 50 | O[C@H]1c2c(C(F)(F)F)ncc(Oc3cncc(F)c3)c2[C@@H](F)[C@H]1F [Compound 40] | – | –
34 | > 1000 | – | > 1000 | N#Cc1cc(F)cc(Oc2nnc(C(F)(F)F)c3c2CCC3O)c1 (stereo not shown) [Compound 42, 3-fluoro-5-((5-hydroxy-4-(trifluoromethyl)-6,7-dihydro-5H-cyclopenta[d]pyridazin-1-yl)oxy)benzonitrile] | – | –
35 | < 50 | – | 250 to 1000 | N#Cc1cc(F)cc(Oc2cnc(C(F)(F)F)c3c2CCC3O)c1 (stereo not shown) [Compound 8] | – | –

Row | SMILES | IC50 [1] [nM] | EC50 (786-O cells) [nM] | EC50 (786-O-Hif-Luc cells) [nM] | mRNA levels of HIF-2α target genes (VEGF, PAI-1, CCND1) in 786-O xenografts [2] | level of human VEGFA in plasma of 786-O xenograft bearing mice (human VEGFA)
36 | O[C@H]1c2c(C(F)(F)F)ncc(OC3CC(F)(F)C3)c2[C@@H](F)[C@H]1F [Compound 37, (5R,6S,7S)-4-(3,3-difluorocyclobutoxy)-5,6-difluoro-1-(trifluoromethyl)-6,7-dihydro-5H-cyclopenta[c]pyridin-7-ol] | < 50 | < 50 | < 50 | decreased; also recorded: significant reduction | decreased; also recorded: significant reduction
37 | O[C@H]1c2c(C(F)(F)F)ncc(OC3CC(F)(F)C3)c2C[C@H]1F [Compound 1, (6R,7S)-4-(3,3-difluorocyclobutoxy)-6-fluoro-1-(trifluoromethyl)-6,7-dihydro-5H-cyclopenta[c]pyridin-7-ol] | < 50 | < 50 | < 50 | – | –
38 | O[C@@H]1CCc2c(OC3CC(F)(F)C3)cnc(C(F)(F)F)c21 [Compound 2, (R)-4-(3,3-difluorocyclobutoxy)-1-(trifluoromethyl)-6,7-dihydro-5H-cyclopenta[c]pyridin-7-ol] | < 50 | – | 250 to 1000 | – | –
